What was measured:
[1] = In vitro genetic toxicology studies; settings: two in vitro studies
[2] = Single ascending oral dose pharmacokinetics in humans; assay type: in vivo; settings: human
Method: The pharmacokinetic properties of CV-10155 in humans were analyzed. Subjects were given a single oral dose of CV-10155, and plasma concentrations were measured at various time points. Various dosages were given to fasting subjects, and 30 mg dose was given to a subjects in a fed state.
FIG. 15 is a graph of the average plasma concentration of CV-10155 following oral administration to humans. Purple circles represent 5 mg, fasted; green diamonds represent 15 mg, fasted; red squares represent 30 mg fasted; blue triangles represent 30 mg, fed; purple crosses represent 60 mg, fasted; teal 5-pointed stars represent 90 mg, fasted; olive 6-pointed stars represent 135 mg, fasted; and brown 10-pointed stars represent 200 mg fasted.
FIG. 16 is a graph of the average plasma concentration of CV-10155 following oral administration of a 30 mg dose to humans. Blue triangles represent fasted; and red circles represent fed.
The pharmacokinetic properties of CV-10155 and Sage-217 in humans were compared. The day 7 from subjects given either 60 mg CV-10155 in the morning in a fasted state or 30 mg Sage-217 were analyzed. Results from multiple ascending dose studies are shown in Table 10, and results from single ascending dose studies are shown in Table 11.

[3] = tested on: all 18 GABAA receptor channels; test: Activity at GABAA receptor channels; settings: previously shown
Description: (§1) The compound of Formula (I) is believed to have binding affinity at the GABA-gated Cl-channel, the kappa opioid receptor, the 5-HT2A receptor, and the androgen receptor. The compound of Formula (I) has previously shown activity at all 18 GABAA receptor channels and the kappa opioid receptor. The compound of Formula (I) had previously shown no activity at the 5-HT2A receptor. Activity at the androgen receptor is has not yet been well studied.

5-HT2A receptor = 5-HT2A receptor (Homo sapiens, UniProt P28223); test: Activity at the 5-HT2A receptor; settings: previously shown
Description: as §1

rats = test: Repeat-dose toxicity up to four weeks, rats; assay type: in vivo, rat
Method: The no-observed-adverse-effect-level doses were 7.5/mg/kg/day and 6 mg/kg/day in rats and dogs, respectively.
Justification for Dose—Based on the nonclinical toxicology data, there is not an unreasonable risk of adverse effects. Using the FDA guidance “Estimating the Maximum Safe Starting Dose in Initial Clinical Trials for Therapeutics in Adult Healthy Volunteers” (July, 2005), the calculated human equivalent dose would be 1/2 mg/kg/day or 3/24 mg/kg/day, respectively, based on the 28-day rat no-observed-adverse-effect-level dose of 7.5 mg/kg/day or the 28-day dog no-observed-adverse-effect-level dose of 6 mg/kg/day, respectively. For both species the no-observed-adverse-effect-level dose was the highest dose tested. For a 60 kg participant, this would result in a maximum safe starting dose of (human equivalent dose/10) of 7.2 mg/day or 19/6 mg/day. The starting doses in this Phase 1 study are 5 mg, equivalent to […] for a 60 kg participant. […] These anticipated Cmax and AUC values are ˜80- and 50-fold lower, respectively, than that observed at the no-observed-adverse-effect-level dose in dogs.

human subjects = test: Phase 1 study of safety, tolerability and pharmacokinetics in healthy volunteers (Example 1); assay type: in vivo; settings: Phase 1 study participants
Description: The study is a first in-human study of ATN-10155 is designed to assess the safety, tolerability, and pharmacokinetics of ATN-10155 following administration of two phases: a single ascending dose phase and multiple ascending dose phase. The study is a randomized, double-blind study with participants in each cohort receiving active drug or matching placebo. The study evaluates the safety, tolerability, and pharmacokinetics of ATN-10155 following the single and multiple dose phases in healthy volunteers. […]
Single Ascending Dose—the Single Ascending Dose portion comprises five or more cohorts with eight participants in each cohort, 6 actively receiving ATN-10155 and 2 receiving a placebo. […] Sentinel dosing is not employed once the maximum tolerated dose is determined or if an intermediate cohort is added that that is lower than the dose of the previous cohort. […]
Safety and tolerability—A physical and neurological exam is done as part of the eligibility evaluation at screening. […] Systolic blood pressure, diastolic blood pressure, pulse, and peripheral arterial oxygen saturation (pulse oximetry) is recorded prior to every PK blood sample (including pre-dose) in the single ascending dose portion. […] If a post-menopausal female, follicle stimulating hormone levels is measured at screening. […]

[4] = tested on: rodent models of seizure, anxiety, depression and EEG biomarker; test: Preclinical models of depression, anxiety, seizure and EEG (overall effective dose); assay type: in vivo

Chain of 5-HT2A receptor (P28223 whole entry, looked up): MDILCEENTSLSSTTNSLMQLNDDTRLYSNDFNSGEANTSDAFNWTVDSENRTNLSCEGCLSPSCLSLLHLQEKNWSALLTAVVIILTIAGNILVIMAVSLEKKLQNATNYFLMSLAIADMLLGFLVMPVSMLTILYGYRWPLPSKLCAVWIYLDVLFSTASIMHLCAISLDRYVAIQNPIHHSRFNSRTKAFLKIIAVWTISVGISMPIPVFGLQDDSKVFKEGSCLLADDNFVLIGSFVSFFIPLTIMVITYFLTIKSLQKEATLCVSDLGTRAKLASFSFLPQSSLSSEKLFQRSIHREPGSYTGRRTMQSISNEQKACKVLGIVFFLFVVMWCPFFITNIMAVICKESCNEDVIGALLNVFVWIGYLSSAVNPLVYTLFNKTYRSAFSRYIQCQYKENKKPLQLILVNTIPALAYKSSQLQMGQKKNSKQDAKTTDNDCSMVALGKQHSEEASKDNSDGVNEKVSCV

## C[C@@]1(O)CC[C@@]2(C)[C@@H](CC[C@@H]3[C@@H]2CC[C@]2(C)[C@@H](C(=O)Cn4cc(C#N)cn4)CC[C@@H]32)C1 [CV-10155, 1-[2-[(3R,5S,8R,9S,10S,13S,14S,17S)-3-hydroxy-3,10,13-trimethyl-1,2,4,5,6,7,8,9,11,12,14,15,16,17-tetradecahydrocyclopenta[a]phenanthren-17-yl]-2-oxoethyl]pyrazole-4-carbonitrile]
[1]
  genetic toxicology findings: no positive findings
[2]; 30 mg oral, fed vs fasted
  effect of food consumption on absorption: no clinically meaningful effect
[2]; 135 mg SAD MTD
  Tmax: 2.83 h
[2]; single oral dose, 5-200 mg
  Tmax: 2 to 4 h
  half-life: 24 to 26 h
  inter-subject variability (CV) of AUC and Cmax: ≤ 30%
[2]; single oral dose, 5-200 mg dose range
  dose proportionality of AUC and Cmax: dose-proportional increase
[3]
  activity at all 18 GABAA receptor channels: activity
5-HT2A receptor
  activity at the 5-HT2A receptor: no activity
rats; mid and high dose levels, species not specified (rats and dogs program)
  primary effects observed in repeat-dose toxicity: ataxia and prostration
rats; rats, 28-day repeat dose
  no-observed-adverse-effect-level dose: 7.5 mg/kg/day
Human subjects
  serious adverse events: minimal to no serious adverse events
  severe adverse events: minimal to no severe adverse events
[4]; in most models
  dose from which robust efficacy was observed: ≥ 3 mg/kg
[4]; preclinical models of depression, anxiety, seizure
  minimal effective dose (MED): 1 mg/kg

Source: patent US20230372364A1, “METHOD OF TREATING GABA MEDIATED DISORDERS” (Eliem Therapeutics (UK) Ltd, priority 2020, published 2023)
